In patent US12428377B2, “Sodium-hydrogen exchanger 3 inhibitor compounds” (Eli Lilly and Company, priority 2019, dated 2025) one finds IC50 data, which are given here for one molecule.

In the experiment the target is T1, human NHE3 (Homo sapiens, UniProt P48764).
T1 construct: myc; expressed in transfected cells
T1 sequence (P48764 26-834): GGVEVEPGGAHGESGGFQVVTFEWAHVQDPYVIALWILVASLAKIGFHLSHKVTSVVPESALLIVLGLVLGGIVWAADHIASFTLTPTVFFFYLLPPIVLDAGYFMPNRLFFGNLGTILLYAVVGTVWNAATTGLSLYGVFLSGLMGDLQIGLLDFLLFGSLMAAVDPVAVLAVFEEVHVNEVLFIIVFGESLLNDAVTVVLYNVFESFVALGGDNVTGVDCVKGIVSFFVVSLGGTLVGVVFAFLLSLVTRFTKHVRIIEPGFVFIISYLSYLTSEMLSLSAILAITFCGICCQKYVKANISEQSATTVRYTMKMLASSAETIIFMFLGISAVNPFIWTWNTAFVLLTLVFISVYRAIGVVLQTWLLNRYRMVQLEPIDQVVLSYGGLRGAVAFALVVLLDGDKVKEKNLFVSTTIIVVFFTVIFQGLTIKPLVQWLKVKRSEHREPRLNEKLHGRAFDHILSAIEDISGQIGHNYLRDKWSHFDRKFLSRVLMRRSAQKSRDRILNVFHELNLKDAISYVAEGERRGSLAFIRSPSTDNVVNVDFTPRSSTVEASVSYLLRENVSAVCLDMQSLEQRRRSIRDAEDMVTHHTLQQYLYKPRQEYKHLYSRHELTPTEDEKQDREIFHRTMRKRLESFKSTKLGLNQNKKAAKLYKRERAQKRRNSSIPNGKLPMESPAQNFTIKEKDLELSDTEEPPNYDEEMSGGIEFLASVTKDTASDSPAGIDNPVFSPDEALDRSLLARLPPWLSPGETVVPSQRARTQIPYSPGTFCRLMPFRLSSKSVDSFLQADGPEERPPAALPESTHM
In words: In vitro NHE3 inhibition activity (intracellular pH recovery, BCECF-AM, NHD C8 cells overexpressing human NHE3). Type of experiment: cell-based. To be noted: geometric mean of individual IC50. The source says: In Vitro NHE3 Inhibition Activity
To create an NHE3 assay, cells selectively expressing NHE3 are generated by overexpressing human NHE3 in an endogenously NHE-deficient cell line. The NHE-deficient cell line is created by chemical-induced mutagenesis. After the mutagenesis, NHE-deficient cells are selected by subjecting lithium (Li) loaded cells to an acidic extracellular environment. Under these conditions, NHE exchanges intracellular Li^+ for extracellular protons, thus only NHE-deficient cells can avoid a toxic intracellular acidosis and survive.
An NHE-deficient cell line, NHD C8, is generated by mutagenesis and selection from the cell line Dede (ATCC® CCL-39™). The mutagenesis is induced by treating Dede CCL-39 cells with EMS (Sigma-Aldrich) in growth media at a final concentration of 500 μg/ml for 20 h. […]
To measure NHE activity, the intracellular pH of the cells is reduced by addition of NH4Cl. The sodium-dependent intracellular pH change is then measured by the intracellular pH-sensitive fluorescein dye, BCECF-AM (Molecular Probes-ThermoFisher Scientific). […] The plate is immediately read for fluorescent intensity at an excitation wavelength of 505 nm and emission wavelength of 550 nm. […]

Turning to `CN1Cc2c(Cl)cc(Cl)cc2[C@H](c2cccc(S(=O)(=O)NCCOCCOCCN/C(=N\C(N)=O)NCCCCN/C(=N/C(N)=O)NCCOCCOCCNS(=O)(=O)c3cccc([C@@H]4CN(C)Cc5c(Cl)cc(Cl)cc54)c3)c2)C1.Cl.Cl` [Example 2, [[4-[[N′-Carbamoyl-N-[2-[2-[2-[[3-[(4S)-6,8-dichloro-2-methyl-3,4-dihydro-1H-isoquinolin-4-yl]phenyl]sulfonylamino]ethoxy]ethoxy]ethyl]carbamimidoyl]amino]butylamino]-[2-[2-[2-[[3-[(4S)-6,8-dichloro-2-methyl-3,4-dihydro-1H-isoquinolin-4-yl]phenyl]sulfonylamino]ethoxy]ethoxy]ethylamino]methylene]urea dihydrochloride], the IC50 (usually the point on the concentration scale where inhibition reaches its midpoint) was 5.76 nM.
